In patent US4396614A, “Novel steroids” (Uclaf; Roussel, priority 1980, dated 1983):

Key:
[1] = test system: aldosterone monoacetate; test: Antialdosterone activity: diuresis test in surrenalectomized rats (Kagawa/Marcus); format: in vivo, rat; conditions: surrenalectomized male Sprague Dawley rats, 4 hours urine collection
Procedure: The study was effected by a test inspired by Kagawa [P.S.E.B.M., Vol. 99 (1958), p. 705] and Marcus [Endocrinology, Vol. 50 (1952), p. 286] in which male rats of the Sprague Dawley SPF 1FFA CREDO strain weighing 180 g were surrenalectomized 7 days before diuresis while anestesized with Imalgene (Ketamine) intraperitoneally at a dose of 100 mg/kg. After the operation and from the night before the start of the test, the rats received physiological serum as drinking water and the animals were held without food or drink for 17 hours before diuresis and the physiological serum was replaced by water containing 5% glucose. The test products were orally administered before placing them in a cage and at the moment of diuresis, the animals received intraperitoneally a hydrosaline surcharge of 5 ml per rat of 9.permill. physiological serum and subcutaneously 1 μg/kg of aldosterone monoacetate in 2.5% alcoholic solution.
The rats were placed in pairs in a diuresis cage without food or drink for 4 hours and at this time, a forced emission was induced by pressure against the bladder and the volume of recovered urine was measured. After careful rinsing of the cages and the glass, the urine volume was adjusted to 50 ml and this solution was treated to determine the amount of potassium and sodium in the urine by flame photometry in an autoanalyszer. […] 125-132]. […]

[2] = biological target: T1, androgen hormonal receptor of prostate cytosol (Rattus norvegicus, UniProt P15207); test: Androgenic activity: hormonal receptor method of Raynaud, displacement of tritiated 17α-methyl-Δ^4,9,11-estratriene-17β-ol-3-one (Product R) in prostate cytosol; format: binding; conditions: prostate cytosol of castrated male rats, incubated at 0° C. for 2 hours
T1 construct: The homogenate was centrifuged at 105,000 g per hour and the surnageant or cytosol was adjusted to a dilution of 1/5; from tissue; host or cells: prostate cytosol of male rats castrated 24 hours earlier
T1 sequence (P15207 1-902): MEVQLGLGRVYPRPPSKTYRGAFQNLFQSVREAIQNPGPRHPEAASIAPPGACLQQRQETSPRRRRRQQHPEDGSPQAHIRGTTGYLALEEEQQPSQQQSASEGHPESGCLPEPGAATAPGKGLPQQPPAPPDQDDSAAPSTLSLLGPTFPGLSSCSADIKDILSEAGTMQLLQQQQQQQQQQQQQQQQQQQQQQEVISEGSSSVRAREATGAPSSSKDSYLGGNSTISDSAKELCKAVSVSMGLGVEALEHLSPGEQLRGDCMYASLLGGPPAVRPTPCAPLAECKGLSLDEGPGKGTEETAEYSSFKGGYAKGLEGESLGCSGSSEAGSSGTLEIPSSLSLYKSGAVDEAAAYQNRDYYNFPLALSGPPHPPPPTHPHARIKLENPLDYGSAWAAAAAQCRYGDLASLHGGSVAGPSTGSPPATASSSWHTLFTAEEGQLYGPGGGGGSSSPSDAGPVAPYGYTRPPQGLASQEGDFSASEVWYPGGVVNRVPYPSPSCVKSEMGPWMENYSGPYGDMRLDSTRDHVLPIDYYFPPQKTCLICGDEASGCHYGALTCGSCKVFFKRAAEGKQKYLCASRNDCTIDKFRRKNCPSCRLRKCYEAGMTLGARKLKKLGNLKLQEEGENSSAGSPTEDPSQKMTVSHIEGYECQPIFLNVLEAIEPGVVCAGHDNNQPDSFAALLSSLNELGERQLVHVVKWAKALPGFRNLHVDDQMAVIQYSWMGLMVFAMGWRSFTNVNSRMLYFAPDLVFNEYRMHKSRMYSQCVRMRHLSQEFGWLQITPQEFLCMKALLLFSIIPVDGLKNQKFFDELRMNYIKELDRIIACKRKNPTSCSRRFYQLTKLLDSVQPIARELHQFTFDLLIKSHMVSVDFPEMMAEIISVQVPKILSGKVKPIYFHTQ
Procedure: The latter was homogenized in a buffered solution of 10 mm of tromethamine, 0.25 M of saccharose and a pH of 7.4 with hydrochloric acid. The homogenate was centrifuged at 105,000 g per hour and the surnageant or cytosol was adjusted to a dilution of 1/5 (weight/volume). The resulting solution was incubated at 0° C. for 2 hours in tubes with the same volume of cytosol with a fixed concentration of tritiated 17α-methyl-Δ^4,9,11 - estratriene-17β-ol-3-one (designated as tritiated Product R) in the presence or not of an increasing concentration of radioinactive 17α-methyl-Δ^4,9,11 -estratriene-17β-ol-3-one (designated as cold product R) or the test product. […] The plots were the curves representing the percentage of tritiated product R as a function of the log of the concentration of cold product R or the test product of the I50 straight line parallel to the axis of the abcisses and ordinates.
B/T=(B/T Max.+B/T Min.)/2
B/T max. is the percentage of tied tritiated product R when the product is not added and B/T min, is the percentage of tied tritiated product R when the maximum amount of cold product R is added.

CCC[C@@H]1CC2=CC(=O)C=C[C@]2(C)[C@H]2CC[C@@]3(C)[C@@H](CC[C@@]3(O)CCC(=O)O)[C@H]12 [Example 10, Potassium 7α-propyl-17α-Δ^1,4-pregnadiene-17β-ol-3-one-21-carboxylate]
percentage of inhibition of the activity of 1 μg/kg of aldosterone monoacetate (log of ratio sodium concentration/potassium concentration in urine) ([1]; 0.4 mg/kg orally): 30% | percentage of inhibition of the activity of 1 μg/kg of aldosterone monoacetate (log of ratio sodium concentration/potassium concentration in urine) ([1]; 2 mg/kg orally): 80% | ARL (relative affinity = 100×(CT/CX)) [2]: 0.02
